This note sets out measurements from BindingDB's records for patent US20240400586 (Haisco Pharmaceutical Group, 2024).

This test addresses Poly [ADP-ribose] polymerase 1 (Homo sapiens, UniProt P09874). Kind of test: PARP1 Enzyme Activity Assay.

Chain of Poly [ADP-ribose] polymerase 1 (P09874 whole entry): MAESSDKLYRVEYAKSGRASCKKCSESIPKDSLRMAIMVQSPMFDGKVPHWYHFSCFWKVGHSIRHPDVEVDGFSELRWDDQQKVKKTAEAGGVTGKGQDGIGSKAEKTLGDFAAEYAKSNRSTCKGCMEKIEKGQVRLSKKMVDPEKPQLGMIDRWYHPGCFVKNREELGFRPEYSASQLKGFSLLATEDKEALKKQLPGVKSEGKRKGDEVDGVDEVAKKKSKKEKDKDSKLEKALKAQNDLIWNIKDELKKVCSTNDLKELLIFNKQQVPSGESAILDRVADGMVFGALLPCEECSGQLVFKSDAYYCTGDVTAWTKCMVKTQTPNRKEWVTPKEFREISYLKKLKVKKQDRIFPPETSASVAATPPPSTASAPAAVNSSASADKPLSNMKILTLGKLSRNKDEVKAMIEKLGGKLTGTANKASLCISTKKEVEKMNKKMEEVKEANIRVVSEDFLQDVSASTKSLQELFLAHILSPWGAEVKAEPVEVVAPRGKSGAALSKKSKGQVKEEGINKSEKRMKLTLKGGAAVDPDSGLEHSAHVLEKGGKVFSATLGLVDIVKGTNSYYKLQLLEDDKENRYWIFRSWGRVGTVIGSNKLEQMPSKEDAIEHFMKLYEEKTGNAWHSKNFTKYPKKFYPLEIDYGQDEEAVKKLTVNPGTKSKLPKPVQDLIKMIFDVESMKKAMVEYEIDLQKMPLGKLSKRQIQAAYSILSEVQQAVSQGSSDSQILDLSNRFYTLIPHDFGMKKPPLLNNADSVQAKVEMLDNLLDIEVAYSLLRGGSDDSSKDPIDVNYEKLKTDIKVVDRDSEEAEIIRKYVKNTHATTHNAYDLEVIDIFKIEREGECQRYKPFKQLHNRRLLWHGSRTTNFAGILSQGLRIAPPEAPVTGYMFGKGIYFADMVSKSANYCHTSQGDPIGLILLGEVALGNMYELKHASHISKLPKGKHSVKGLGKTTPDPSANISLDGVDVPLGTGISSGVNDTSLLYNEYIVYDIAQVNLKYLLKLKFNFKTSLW
Description: The histone solution in the kit was diluted 5× with 1×PBS, and 25 μL of the diluted histone solution was added to a microwell plate and incubated overnight at 4° C. After the incubation, the plate was washed three times with PBST (0.05% Tween-20). 100 μL of the blocking solution was added to the microwell plate and incubated at 25° C. for 90 minutes. After the incubation, the plate was washed three times with PBST. 2.5 μL of compounds at different concentrations diluted in test buffer and 12.5 μL of substrate mixed solution (1.25 μL 10×PARP test buffer; 1.25 μL 10×PARP test mixed solution; 2.5 μL Activated DNA, 7.5 μL double-distilled water) were added to the microwell plate. The PARP1 enzyme was diluted to 2 ng/μL, 10 μL of the diluent was added to the microwell plate, and the reaction system was incubated at 25° C. for 60 minutes.After the incubation, the plate was washed three times with PBST. Streptavidin-HRP was diluted 50× with a blocking solution, and 25 μL of the diluent was added to the microwell plate and incubated at 25° C. for 30 minutes. After the incubation, the plate was washed three times with PBST. ELISA ECL substrate A and substrate B were mixed at a ratio of 1:1 (v/v), 50 μL of the mixture was added to the microwell plate, and the chemiluminescence value was read.

For the compound `CCC1=CC2N=CC(CN3CCN(c4ccc(C(=O)NC5CCC5)nc4)CC3)CC2NC1=O` (stereo not drawn) [US20240400586, Compound 10], the half-maximal inhibitory concentration (IC50) (usually the concentration that gives 50% inhibition) turned out to be 0.56 nM.
As for `CCC1CC2N=CC(CN3CCN(C4C=CC(C(=O)N[C@@H]5C[C@@H]5F)=NC4)CC3)=CC2NC1=O` (stereo partly drawn) [US20240400586, Compound 11], it took 0.54 nM to reach half-maximal inhibition (IC50).
Take `CCC1Cc2ncc(CN3CCN(C4CN5C=C(C)NC5C=N4)CC3)cc2NC1=O` (stereo not drawn) [US20240400586, Compound 15]: the midpoint of inhibition, the IC50, lay at 0.65 nM.
